IC50 data for 15 molecules are collected here from patent US9303035B2, “Substituted pyrazino[1′,2′:1,2]pyrrolo[3,4-d]pyrimidines, pyrimido[4′,5′:3,4]pyrrolo[2,1-c][1,4]oxazines and pyrimido[4′,5′:3,4]pyrrolo[1,2-d][1,4]oxazepines for inhibiting the CFTR channel” (Novartis AG, priority 2012, dated 2016).

CFTR (WT-CFTR channels stably expressed in CHO cells), sequence (P13569 whole entry): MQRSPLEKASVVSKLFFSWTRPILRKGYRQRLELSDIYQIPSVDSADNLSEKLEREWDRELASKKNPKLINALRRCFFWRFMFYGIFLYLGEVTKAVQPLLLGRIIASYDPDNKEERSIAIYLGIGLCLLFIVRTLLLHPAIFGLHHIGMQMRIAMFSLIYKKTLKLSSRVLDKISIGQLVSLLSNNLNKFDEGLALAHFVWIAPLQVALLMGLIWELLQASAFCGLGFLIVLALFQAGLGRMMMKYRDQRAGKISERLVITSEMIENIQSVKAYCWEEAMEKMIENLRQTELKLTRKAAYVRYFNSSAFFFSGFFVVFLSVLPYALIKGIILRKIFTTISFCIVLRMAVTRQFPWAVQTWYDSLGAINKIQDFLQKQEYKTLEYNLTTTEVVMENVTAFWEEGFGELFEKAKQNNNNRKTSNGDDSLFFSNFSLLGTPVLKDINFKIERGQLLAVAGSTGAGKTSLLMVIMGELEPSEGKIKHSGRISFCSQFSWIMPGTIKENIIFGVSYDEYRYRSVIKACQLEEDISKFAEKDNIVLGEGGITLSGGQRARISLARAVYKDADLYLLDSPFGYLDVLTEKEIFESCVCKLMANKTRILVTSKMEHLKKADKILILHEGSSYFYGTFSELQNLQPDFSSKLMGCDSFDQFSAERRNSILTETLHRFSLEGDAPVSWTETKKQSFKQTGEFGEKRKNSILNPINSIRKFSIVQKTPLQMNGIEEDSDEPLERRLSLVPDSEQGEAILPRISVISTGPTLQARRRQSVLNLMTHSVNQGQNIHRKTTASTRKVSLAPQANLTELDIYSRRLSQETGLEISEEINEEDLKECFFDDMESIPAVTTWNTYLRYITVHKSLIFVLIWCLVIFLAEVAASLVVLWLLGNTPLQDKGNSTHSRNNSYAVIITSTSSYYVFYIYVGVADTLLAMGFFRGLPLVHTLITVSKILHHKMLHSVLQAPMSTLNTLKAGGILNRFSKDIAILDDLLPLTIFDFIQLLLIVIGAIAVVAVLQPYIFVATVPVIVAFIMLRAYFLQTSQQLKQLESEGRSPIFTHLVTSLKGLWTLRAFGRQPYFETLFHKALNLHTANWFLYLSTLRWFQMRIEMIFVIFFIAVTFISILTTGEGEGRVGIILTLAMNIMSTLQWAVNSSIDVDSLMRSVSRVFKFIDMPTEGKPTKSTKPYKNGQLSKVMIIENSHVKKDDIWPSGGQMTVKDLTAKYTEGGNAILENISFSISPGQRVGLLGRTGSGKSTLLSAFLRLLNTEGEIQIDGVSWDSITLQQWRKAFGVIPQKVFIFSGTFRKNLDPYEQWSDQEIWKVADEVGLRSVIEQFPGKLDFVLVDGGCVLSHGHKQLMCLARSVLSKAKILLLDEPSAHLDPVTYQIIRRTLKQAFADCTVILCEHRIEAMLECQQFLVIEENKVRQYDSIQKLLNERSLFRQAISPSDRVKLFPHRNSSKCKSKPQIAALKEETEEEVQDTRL

This test has as its target CFTR (WT-CFTR channels stably expressed in CHO cells) (Homo sapiens (Human), UniProt P13569). Nature of the test: IonWorks Quattro CFTR inhibitor assay (whole-cell population patch clamp, forskolin-activated current). Particulars: inward current (−100 mV); CHO cells stably expressing WT-CFTR; CFTR activated with 10 μM forskolin; 10 min compound incubation. Format: cell-based. The text has this:
CFTR activity can be quantified by electrophysiology methods, using the whole-cell configuration of the patch clamp technique (Hamill O, Marty A, Neher E, Sakmann B and Sigworth F. ‘Improved patch-clamp techniques for high resolution current recording from cells and cell-free membrane patches.’ Pflugers Archive 1981 391: 85-100). This assay directly measures the currents associated with chloride flow through CFTR channels whilst either maintaining or adjusting the transmembrane voltage. This assay can use either single glass micropipettes or parallel planar arrays to measure CFTR activity from native or recombinant cell systems. Currents measured using parallel planar arrays can be quantified using an appropriately equipped instrument such as the IonWorks Quattro (Molecular Devices Corporation, Sunnyvale, Calif.). The Quattro system can measure CFTR currents from either a single cell per recording well (HT configuration) or alternatively from a population of 64 cells per well (Population Patch Clamp PPC) (Finkel A, Wittel A, Yang N, Handran S, Hughes J, Costantin J. ‘Population patch clamp improves data consistency and success rates in the measurement of ionic currents.’ J Biomol Screen. 2006 August; 11(5):488-96).
Chinese hamster ovary (CHO) cells stably expressing WT-CFTR channels were used for the IonWorks Quattro experiments. Cells were maintained at 37° C. in 5% v/v CO2 at 100% humidity in MEM alpha medium supplemented with 10% (v/v) FCS, 100 U/mL Penicillin/Streptomycin, and 100 μg/L methotrexate. For experiments, cells were grown in 225 cm^2 tissue culture flasks until almost confluent. Cells were removed from the flask using trypsin-EDTA and resuspended in extracellular recording solution for immediate experimentation.
Cells, at a density of 1.5-2 million per mL, were placed on the Quattro system, added to the planar patch plate and seals allowed to establish for 5-10 mins. After assessing seal resistances (typically >50 MΩ), whole-cell access was obtained by perforation with 100 μg/mL amphotericin B. Baseline currents were measured by a pre-compound scan obtained by application of a voltage ramp from −100 to +100 mV. CFTR was activated by the addition of 10 μM forskolin to each of the 384 wells of the patch plate. After 5 min incubation the post-compound 1 currents were measured, again by application of a voltage ramp from −100 to +100 mV. Test compounds, diluted from 10 mM stocks in DMSO in extracellular solution were then added to the patch plate and were incubated for a further 10 min. The post-compound 2 currents were measured by the application of the same voltage ramp from −100 to +100 mV. The inhibition of CFTR was determined from the difference in current between the forskolin addition (post-compound 1) and the test compound (post-compound 2). This was determined at both −100 mV and +100 mV which represents the inward and outward current respectively.
Extracellular solution (ECS): 145 mM NaCl, 4 mM CsCl, 5 mM D-glucose, 10 mM TES, 1 mM CaCl2, 1 mM MgCl2, pH 7.4 NaOH
Intracellular solution (ICS): 113 mM L-Aspartic acid, 113 mM CsOH, 27 mM CsCl, 1 mM NaCl, 1 mM MgCl2, 1 mM EGTA, 10 mM TES. pH 7.2 with CsOH. Filter sterilized before use.
In general terms: In patch-clamp work, channel activity is measured electrically.
Regarding `Cn1ccc(C2NCCn3c(-c4ccccc4)c4c(=O)n(C)c(=O)n(C)c4c32)n1` (stereo not drawn) [Example 1.12, 1,3-Dimethyl-10-(1-methyl-1H-pyrazol-3-yl)-5-phenyl-7,8,9,10-tetrahydropyrazino[1′,2′:1,2]pyrrolo[3,4-d]pyrimidine-2,4(1H,3H)-dione], the IC50 (in general, the midpoint of a concentration-inhibition curve) was 10.8 µM.

For the molecule `Cn1c(=O)c2c(-c3ccccc3)n3c(c2n(C)c1=O)C(c1cccc(F)c1F)NCC3` (stereo not drawn) [Example 1.14, 10-(2,3-Difluorophenyl)-1,3-dimethyl-5-phenyl-7,8,9,10-tetrahydropyrazino[1′,2′:1,2]pyrrolo[3,4-d]pyrimidine-2,4(1H,3H)-dione], it took 11.5 µM to reach half-maximal inhibition (IC50). The IC50 values of the last two molecules are within 1.5-fold of each other.

`Cn1c(=O)c2c(-c3ccccc3)n3c(c2n(C)c1=O)C(C1CC=CCC1)NCC3` (stereo not drawn) [Example 1.17, 10-(Cyclohex-3-en-1-yl)-1,3-dimethyl-5-phenyl-7,8,9,10-tetrahydropyrazino[1′,2′:1,2]pyrrolo[3,4-d]pyrimidine-2,4(1H,3H)-dione] gave an IC50 of 18.1 µM.

With `Cn1c(=O)c2c(-c3ccccc3)n3c(c2n(C)c1=O)C(c1ccc(Cl)cc1)NCC3` (stereo not drawn) [Example 1.23, 10-(4-Chlorophenyl)-1,3-dimethyl-5-phenyl-7,8,9,10-tetrahydropyrazino[1′,2′:1,2]pyrrolo[3,4-d]pyrimidine-2,4(1H,3H)-dione], the concentration for half-maximal inhibition (IC50) amounted to 29.9 µM.

Molecule `Cc1csc(-c2c3c(=O)n(C)c(=O)n(C)c3c3n2CCNC3c2ccc(Cl)o2)n1` (stereo not drawn) [Example 1.26, 10-(5-Chlorofuran-2-yl)-1,3-dimethyl-5-(4-methylthiazol-2-yl)-7,8,9,10-tetrahydropyrazino[1′,2′:1,2]pyrrolo[3,4-d]pyrimidine-2,4(1H,3H)-dione] returned a 50% inhibitory concentration (IC50) of 1.9 µM.

In turn, `Cn1c(=O)c2c(-c3cccc(Cl)c3)n3c(c2n(C)c1=O)C(c1ccc(Cl)o1)NCC3` (stereo not drawn) [Example 3.1, 10-(5-Chlorofuran-2-yl)-5-(3-chlorophenyl)-1,3-dimethyl-7,8,9,10-tetrahydropyrazino[1′,2′:1,2]pyrrolo[3,4-d]pyrimidine-2,4(1H,3H)-dione] returned an IC50 of 0.7 µM.

`Cc1csc(C2NCCn3c(-c4cccc(Cl)c4)c4c(=O)n(C)c(=O)n(C)c4c32)n1` (stereo not drawn) [Example 3.2, 5-(3-Chlorophenyl)-1,3-dimethyl-10-(4-methylthiazol-2-yl)-7,8,9,10-tetrahydropyrazino[1′,2′:1,2]pyrrolo[3,4-d]pyrimidine-2,4(1H,3H)-dione] showed a 50% inhibitory concentration (IC50) of 0.64 µM.

Take `Cc1cc(C)cc(-c2c3c(=O)n(C)c(=O)n(C)c3c3n2CCNC3c2ccc(Cl)o2)c1` (stereo not drawn) [Example 3.6, 10-(5-Chlorofuran-2-yl)-5-(3,5-dimethylphenyl)-1,3-dimethyl-7,8,9,10-tetrahydropyrazino[1′,2′:1,2]pyrrolo[3,4-d]pyrimidine-2,4(1H,3H)-dione]: half-maximal inhibition (IC50) required 8.26 µM. Compared with the last molecule, the IC50 is about 13-fold higher.

Take `Cc1csc(C2OC[C@@H](C)n3c(-c4ccccc4)c4c(=O)n(C)c(=O)n(C)c4c32)n1` (stereo partly drawn) [Example 5.1, (7R)-1,3,7-trimethyl-10-(4-methylthiazol-2-yl)-5-phenyl-7,8-dihydro-1H-pyrimido[4′,5′:3,4]pyrrolo[2,1-c][1,4]oxazine-2,4(3H,10H)-dione]: the IC50 was 3.24 µM.

Molecule `Cn1c(=O)c2c(-c3cccc(F)c3)n3c(c2n(C)c1=O)[C@H](c1ccc(Cl)o1)O[C@@H](CO)C3` [Example 6, (8R,10R)-10-(5-Chlorofuran-2-yl)-5-(3-fluorophenyl)-8-(hydroxymethyl)-1,3-dimethyl-7,8-dihydro-1H-pyrimido[4′,5′:3,4]pyrrolo[2,1-c][1,4]oxazine-2,4(3H,10H)-dione] displayed a half-maximal inhibitory concentration (IC50) of 0.05 µM.

In turn, `Cn1c(=O)c2c(-c3ccccc3)n3c(c2n(C)c1=O)[C@H](c1ccc(Cl)o1)N[C@@H](CO)C3` [Example 11a, 10-(5-Chlorofuran-2-yl)-8-(hydroxymethyl)-1,3-dimethyl-5-phenyl-7,8,9,10-tetrahydropyrazino[1′,2′:1,2]pyrrolo[3,4-d]pyrimidine-2,4(1H,3H)-dione] yielded an IC50 of 0.31 µM.

For `Cc1csc([C@H]2O[C@@H](C)Cn3c(-c4ccccc4)c4c(=O)n(C)c(=O)n(C)c4c32)n1` [Example 12, (8S)-1,3,8-trimethyl-10-(4-methylthiazol-2-yl)-5-phenyl-7,8-dihydro-1H-pyrimido[4′,5′:3,4]pyrrolo[2,1-c][1,4]oxazine-2,4(3H,10H)-dione], the IC50 was determined as 0.6 µM. Against the preceding molecule, the IC50 is about 1.9-fold higher.

The molecule `Cn1c(=O)c2c(-c3ccccc3)n3c(c2n(C)c1=O)C(c1ccc(Cl)o1)OC(C)(C)C3` (stereo not drawn) [Example 12.5, 10-(5-Chlorofuran-2-yl)-1,3,8,8-tetramethyl-5-phenyl-7,8-dihydro-1H-pyrimido[4′,5′:3,4]pyrrolo[2,1-c][1,4]oxazine-2,4(3H,10H)-dione] displayed an IC50 of 0.62 µM.

Take `Cn1c(=O)c2c(-c3ccccc3)n3c(c2n(C)c1=O)[C@H](c1nc(Cl)cs1)COCC3` [Example 13, 11-(4-chlorothiazol-2-yl)-1,3-dimethyl-5-phenyl-7,8,10,11-tetrahydropyrimido[4′,5′:3,4]pyrrolo[1,2-d][1,4]oxazepine-2,4(1H,3H)-dione]: the IC50 worked out at 3.53 µM.

Molecule `Cn1c(=O)c2c(-c3cccc(C#N)c3)n3c(c2n(C)c1=O)[C@H](c1nc(Cl)cs1)CO[C@H](CO)C3` [Example 14, 3-(11-(4-chlorothiazol-2-yl)-8-(hydroxymethyl)-1,3-dimethyl-2,4-dioxo-1,2,3,4,7,8,10,11-octahydropyrimido[4′,5′:3,4]pyrrolo[1,2-d][1,4]oxazepin-5-yl)benzonitrile] had an IC50 of 1.96 µM.
